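1) Cells in 96-well plates. 2) Compound, 48 h, 5 concentrations. 3) Linear interpolation between surrounding doses. 4) Unreached endpoint = highest concentration. TGI denotes the concentration required for complete inhibition of growth.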
Assays:
Assay in all cases: inhibition of tumour cell growth, NCI panel, 48 h
SF-539 CNS = tested on: SF-539 CNS
HT29 colon = tested on: HT29 colon
A549 NSCLC = tested on: A549 NSCLC
ACHN renal = tested on: ACHN renal
SR leukemia = tested on: SR leukemia
M19-MEL melanoma = tested on: M19-MEL melanoma
HCT-15 colon = tested on: HCT-15 colon
M14 melanoma = tested on: M14 melanoma
HCC-2998 colon = tested on: HCC-2998 colon
TK-10 renal = tested on: TK-10 renal
SK-OV-3 ovarian = tested on: SK-OV-3 ovarian
U251 CNS = tested on: U251 CNS
SK-MEL-28 melanoma = tested on: SK-MEL-28 melanoma
CCRF-CEM leukemia = tested on: CCRF-CEM leukemia
SW-620 colon = tested on: SW-620 colon
RXF 393 renal = tested on: RXF 393 renal
DMS 114 small cell lung = tested on: DMS 114 small cell lung
HOP-62 NSCLC = tested on: HOP-62 NSCLC
COLO 205 colon = tested on: COLO 205 colon
MALME-3M melanoma = tested on: MALME-3M melanoma
UACC-62 melanoma = tested on: UACC-62 melanoma
OVCAR-3 ovarian = tested on: OVCAR-3 ovarian
OVCAR-5 ovarian = tested on: OVCAR-5 ovarian
SNB-78 CNS = tested on: SNB-78 CNS
LOX IMVI melanoma = tested on: LOX IMVI melanoma
MOLT-4 leukemia = tested on: MOLT-4 leukemia
SF-268 CNS = tested on: SF-268 CNS
DMS 273 small cell lung = tested on: DMS 273 small cell lung
SK-MEL-5 melanoma = tested on: SK-MEL-5 melanoma
HCT-116 colon = tested on: HCT-116 colon
HL-60(TB) leukemia = tested on: HL-60(TB) leukemia
HOP-18 NSCLC = tested on: HOP-18 NSCLC
IGROV1 ovarian = tested on: IGROV1 ovarian
EKVX NSCLC = tested on: EKVX NSCLC
A498 renal = tested on: A498 renal
SF-295 CNS = tested on: SF-295 CNS
OVCAR-4 ovarian = tested on: OVCAR-4 ovarian
RPMI-8226 leukemia = tested on: RPMI-8226 leukemia
NCI-H460 lung = tested on: NCI-H460 lung
DLD-1 colon = tested on: DLD-1 colon
XF 498 CNS = tested on: XF 498 CNS
K-562 leukemia = tested on: K-562 leukemia
NCI-H23 lung = tested on: NCI-H23 lung
786-0 renal = tested on: 786-0 renal
NCI-H226 lung = tested on: NCI-H226 lung
SK-MEL-2 melanoma = tested on: SK-MEL-2 melanoma
RXF-631 renal = tested on: RXF-631 renal
UACC-257 melanoma = tested on: UACC-257 melanoma
KM12 colon = tested on: KM12 colon
HOP-92 NSCLC = tested on: HOP-92 NSCLC
KM20L2 colon = tested on: KM20L2 colon
OVCAR-8 ovarian = tested on: OVCAR-8 ovarian
LXFL 529 NSCLC = tested on: LXFL 529 NSCLC
UO-31 renal = tested on: UO-31 renal
SNB-19 CNS = tested on: SNB-19 CNS
SN12C renal = tested on: SN12C renal
NCI-H522 lung = tested on: NCI-H522 lung
SNB-75 CNS = tested on: SNB-75 CNS
CAKI-1 renal = tested on: CAKI-1 renal

For `C#CC1(O)CCC2[C@@H]3CCc4cc(Oc5nc(F)nc(-c6c7ccccc7c(SCC)n6CCC)n5)ccc4C3CC[C@@]21C` (stereo partly drawn), the TGI (SF-539 CNS) was > 100 µM, the TGI (HT29 colon) was > 100 µM and the TGI (A549 NSCLC) was > 100 µM. For the same compound, the TGI (ACHN renal) was > 100 µM, the TGI (SR leukemia) was > 100 µM and the TGI (M19-MEL melanoma) was > 100 µM. For the same compound, the TGI (HCT-15 colon) was > 100 µM, the TGI (M14 melanoma) was > 100 µM and the TGI (HCC-2998 colon) was > 100 µM. For the same compound, the TGI (TK-10 renal) was > 100 µM, the TGI (SK-OV-3 ovarian) was > 100 µM and the TGI (U251 CNS) was > 100 µM. For the same compound, the TGI (SK-MEL-28 melanoma) was > 100 µM, the TGI (CCRF-CEM leukemia) was > 100 µM and the TGI (SW-620 colon) was > 100 µM. For the same compound, the TGI (RXF 393 renal) was 55.4 µM, the TGI (DMS 114 small cell lung) was > 100 µM and the TGI (HOP-62 NSCLC) was > 100 µM. The TGI (COLO 205 colon) was > 100 µM, the TGI (MALME-3M melanoma) was > 100 µM and the TGI (UACC-62 melanoma) was > 100 µM. The TGI (OVCAR-3 ovarian) was > 100 µM, the TGI (OVCAR-5 ovarian) was > 100 µM and the TGI (SNB-78 CNS) was > 100 µM. The TGI (LOX IMVI melanoma) was > 100 µM, the TGI (MOLT-4 leukemia) was > 100 µM and the TGI (SF-268 CNS) was > 100 µM. For the same compound, the TGI (DMS 273 small cell lung) was > 100 µM, the TGI (SK-MEL-5 melanoma) was > 100 µM and the TGI (HCT-116 colon) was > 100 µM. The TGI (HL-60(TB) leukemia) was > 100 µM, the TGI (HOP-18 NSCLC) was > 100 µM and the TGI (IGROV1 ovarian) was > 100 µM. For the same compound, the TGI (EKVX NSCLC) was > 100 µM, the TGI (A498 renal) was > 100 µM and the TGI (SF-295 CNS) was > 100 µM. The TGI (OVCAR-4 ovarian) was > 100 µM, the TGI (RPMI-8226 leukemia) was > 100 µM and the TGI (NCI-H460 lung) was > 100 µM. The TGI (DLD-1 colon) was > 100 µM, the TGI (XF 498 CNS) was > 100 µM and the TGI (K-562 leukemia) was > 100 µM. For the same compound, the TGI (NCI-H23 lung) was 63.9 µM, the TGI (786-0 renal) was > 100 µM and the TGI (NCI-H226 lung) was 50.1 µM. The TGI (SK-MEL-2 melanoma) was > 100 µM, the TGI (RXF-631 renal) was > 100 µM and the TGI (UACC-257 melanoma) was > 100 µM. The TGI (KM12 colon) was > 100 µM, the TGI (HOP-92 NSCLC) was > 100 µM and the TGI (KM20L2 colon) was > 100 µM. The TGI (OVCAR-8 ovarian) was > 100 µM, the TGI (LXFL 529 NSCLC) was > 100 µM and the TGI (UO-31 renal) was > 100 µM.
`Cc1cccc(C)c1N1C(=O)C(=O)C(c2nc3ccccc3s2)/C(=N/NC(=O)c2ccccc2O)C1=O` (stereo not drawn) was tested, and the TGI (SF-539 CNS) was 59.5 µM, the TGI (HT29 colon) was > 100 µM and the TGI (A549 NSCLC) was > 100 µM. For the same compound, the TGI (ACHN renal) was > 89.4 µM, the TGI (SR leukemia) was 86.3 µM and the TGI (M19-MEL melanoma) was > 100 µM. For the same compound, the TGI (HCT-15 colon) was > 100 µM, the TGI (M14 melanoma) was > 100 µM and the TGI (HCC-2998 colon) was > 73.1 µM. The TGI (TK-10 renal) was > 100 µM, the TGI (SK-OV-3 ovarian) was > 100 µM and the TGI (U251 CNS) was > 100 µM. For the same compound, the TGI (SK-MEL-28 melanoma) was > 83.1 µM, the TGI (CCRF-CEM leukemia) was > 65.3 µM and the TGI (SW-620 colon) was > 100 µM. For the same compound, the TGI (RXF 393 renal) was 17.2 µM, the TGI (DMS 114 small cell lung) was 60.9 µM and the TGI (HOP-62 NSCLC) was > 100 µM. The TGI (COLO 205 colon) was > 86.9 µM, the TGI (MALME-3M melanoma) was > 100 µM and the TGI (UACC-62 melanoma) was 8.31 µM. For the same compound, the TGI (OVCAR-3 ovarian) was > 100 µM, the TGI (OVCAR-5 ovarian) was > 100 µM and the TGI (SNB-78 CNS) was > 100 µM. The TGI (LOX IMVI melanoma) was > 100 µM, the TGI (MOLT-4 leukemia) was > 100 µM and the TGI (SF-268 CNS) was > 68.8 µM. For the same compound, the TGI (DMS 273 small cell lung) was 22.5 µM, the TGI (SK-MEL-5 melanoma) was > 53.7 µM and the TGI (HCT-116 colon) was > 79.5 µM. The TGI (SNB-19 CNS) was > 79.8 µM, the TGI (HL-60(TB) leukemia) was 43.1 µM and the TGI (HOP-18 NSCLC) was 88.6 µM. For the same compound, the TGI (IGROV1 ovarian) was > 82.2 µM, the TGI (EKVX NSCLC) was > 100 µM and the TGI (SN12C renal) was > 100 µM. The TGI (A498 renal) was > 100 µM, the TGI (SF-295 CNS) was > 100 µM and the TGI (OVCAR-4 ovarian) was > 100 µM. For the same compound, the TGI (RPMI-8226 leukemia) was > 69.2 µM, the TGI (NCI-H460 lung) was > 92 µM and the TGI (DLD-1 colon) was > 100 µM. The TGI (XF 498 CNS) was > 100 µM, the TGI (NCI-H522 lung) was 39.6 µM and the TGI (K-562 leukemia) was > 57 µM. The TGI (NCI-H23 lung) was 39.1 µM, the TGI (786-0 renal) was > 66 µM and the TGI (NCI-H226 lung) was 56.5 µM. The TGI (SK-MEL-2 melanoma) was > 100 µM, the TGI (RXF-631 renal) was > 100 µM and the TGI (UACC-257 melanoma) was 68.2 µM. For the same compound, the TGI (KM12 colon) was > 100 µM, the TGI (HOP-92 NSCLC) was > 67.5 µM and the TGI (KM20L2 colon) was > 100 µM. For the same compound, the TGI (SNB-75 CNS) was 69.5 µM, the TGI (CAKI-1 renal) was > 29.8 µM and the TGI (OVCAR-8 ovarian) was > 100 µM. For the same compound, the TGI (LXFL 529 NSCLC) was > 100 µM and the TGI (UO-31 renal) was 22.4 µM.
